Consider nine molecules from patent US5104859A, “Continuous administration of adenosine to reduce pulmonary vascular resistance” (priority 1990, dated 1992).

A short description of data set [1]: Purine levels in arterial plasma before, during and after adenosine-induced controlled hypotension (HPLC). As to conditions: for concentration: Table I, mean ± SEM. The method, then:
(§1) Blood gases were measured with appropriate electrodes for pH, PCO2, and PO2 (Radiometer, Copenhagen). The hemoglobin concentration was determined spectrophotometrically. Samples for the determination of adenosine and its metabolites were collected as described by Sollevi et al., Acta Physiol. Scand., 120: 171-76 (1984). Adenosine and inosine were purified and analyzed by HPLC as described by Fredholm and Sollevi., J. Physiol. (London), 313: 351-67 (1981). Hypoxanthine, xanthine, and uric acid were analyzed by HPLC according to the method of Schweinsberg and Loo., J. Chromatogr., 181: 103-7 (1980). Arterial levels of dipyridamole were determined by HPLC. J. Chromatogr., 162: 98-103 (1979). Blood lactate was measured according to Tfelt-Hansen and Siggard-Andersen. Scand. Clin. Lab. Invest., 27:15-19 (1971).
(§2) Measurements and blood samplings were performed immediately before hypotension, as late as possible during hypotension (1-5 min before terminating the infusion) and approximately 30 min after the hypotensive period.
(§3) Dipyridamole (5 mg. per ml) was infused iv (0.3-0.4 mg. per kg. over a period of 5-10 min) approximately 20 minutes prior to the induction of controlled hypotension. […] (See Pedersen, J. Chromatogr., 162: 98-103 (1979).
(§4) The infusion was started at a rate of 0.01 mg. per kg. per minute, which was doubled at 15 second intervals until the desired MABP level of 40-50 mmHg was reached. […] Serum creatinine was determined before and on two consecutive days after operation. The standard ECG was recorded the day before and the day after operation.
(§5) The statistical significance (control 1 vs. adenosine and control 1 vs. control 2) was determined by Student's t test for paired data. A P value of <0.05 was regarded as significant.
The purine levels of nine of the patients were determined prior to, during and after adenosine-induced controlled hypotension.

The nature of data set [2]: Plasma adenosine and metabolite concentrations during cardiopulmonary bypass (HPLC). The note with it: for concentration: read-out: Venous concentration, 20 min. The method, then: In six cases the plasma adenosine levels were determined by high performance liquid chromatography (HPLC) (Fredholm and Sollevi, J. Physiol. (London), 313: 351-67 (1981) in arterial and in venous (venous lines to the oxygenator) blood. The adenosine metabolites inosine, hypoxanthine and uric acid were also determined by HPLC. The samples were collected as previously described (Sollevi, Acta. Physiol. Scand., 121: 165-72 (1984) at the intervals of 10, 20, 40 and 80 minutes during CPB and 20 minutes after CPB.
Statistical significance (controls v. adenosine group) was determinted with Student's t-test for unpaired data. For significance within the groups the Wilcoxon Rank Sum test was used. p […] 0.05 was regarded as significant.

Data set [3] relates to cardiovascular system. The note with it: cited from earlier work.
Data set [4] deals with myocardial blood flow. The note with it: investigated in abdominal vascular surgery; words; cited from earlier work.
The subject of data set [5] is systemic arterial blood pressure and central hemodynamics. In words: Controlled hypotension during anesthesia: central hemodynamics (dipyridamole-pretreated cerebral aneurysm surgery patients). The note with it: in five of the patients. The method, then:
One hour before the operation the patients were premedicated orally with diazepam (10-20 mg.) Atropine (0.5 mg) and droperidol (0.1 mg. per kg.) were given intravenously before induction of anesthesia. Induction was started with thiopental (5 mg. per kg) followed by phenoperidine (1-2 mg), a synthetic opiate with pharmacodymanics resembling fentanyl but with a longer duration of action and 1/10 of its analgesic potency.
Pancuronium bromide (0.1 mg per kg) was given to facilitate endotracheal intubation. Anesthesia was maintained by supplementary doses of phenoperidine and droperidol, as required. […] Phenoperidine was supplemented regularly to prevent the blood pressure from exceeding the preanesthetic level (approx. 1 mg/30-60 min). Controlled hyperventilation was employed with a humidified gas mixture of 60% N2 O in oxygen to maintain PaCO2 values at approximately 30 mmHg (±1.5/SEM). Mannitol (1-1.5 g. per kg) was given routinely at the start of the operation (e.g., 1-2 hours prior to the controlled hypotension). The patients were operated on in the horizontal supine position.
A 1.2-mm plastic cannula was introduced into the left radial artery to monitor systemic arterial blood pressure (MABP) and collect arterial blood. A balloon-tipped, flow-directed, quadruple lumen Swan-Ganz catheter (Model 93A-831-7.5 F, VIP) was inserted percutaneously via the left basilic vein, and its correct position in the pulmonary artery was determined by pressure tracings. The catheter was used for the monitoring of mean right atrial pressure (RAP), mean pulmonary artery pressure (PAP), and mean pulmonary capillary wedge pressure (PCWP) for the determination of cardiac output and collection of mixed venous blood and for the infusion of adenosine. Another plastic cannula was introduced percutaneously, in a retrograde direction, into the right jugular bulb for the collection of blood. The correct position was verified by x-ray.
The ECG was monitored with a standard chest (V5) lead. Heart rate was determined from the R-R interval. Blood pressures were measured by transducers placed at the midthoracic level. Cardiac output (QT) was determined in triplicate according to the thermodilution technique with a cardiac output computer (Edwards Lab, model 9510). Isotonic glucose, 10 ml at 1° C., was used as a thermal indicator. The ECG, heart rate, blood pressures, and thermodilution curves were recorded on a Grass® polygraph.
as §2, §3, §4
Systemic vascular resistance (SVR) was derived from the formula [formula] and pulmonary vascular resistance (PVR) from the formula [formula]
as §5

In data set [6] the test system is adenosine uptake by red blood cells. As to conditions: cited from earlier work.
The nature of data set [7]: Plasma level of dipyridamole (HPLC). Format: in vivo, human. As to conditions: 0.3-0.4 mg/kg iv over 5-10 min; SEM; read-out: dipyridamole plasma level during hypotensive periods. The method, then:
as §1, §3

For data set [8], the system named is mean arterial blood pressure. The note with it: dipyridamole 1 mg/kg, dogs; cited from earlier work.
In data set [9] the test system is heart muscle. The note with it: injection; cited from earlier work.
The mark [10] stands for this setting: during / after adenosine infusion, in words.
Setting [11] is: read-out: Purine level in arterial plasma, after hypotension, 20-40 min, 20-40 min after hypotension.
[12] abbreviates: read-out: Purine level in arterial plasma, during hypotension, during i.v. adenosine infusion, dipyridamole-pretreated.
Where [13] appears, read: CPB 10', adenosine infusion 0.1 mg/kg/min, n = 6.
[14] abbreviates: CPB 20', adenosine infusion 0.1 mg/kg/min, n = 6.
Where [15] appears, read: CPB 40', adenosine infusion 0.1 mg/kg/min, n = 6.
The mark [16] stands for this setting: CPB 80', adenosine infusion 0.1 mg/kg/min, n = 6.
Setting [17] is: human, venous plasma, iv, 0.1 mg/kg/min, Venous concentration.

Entries after “also recorded” stand apart in the source; their conditions may differ. Read-outs that look alike come from different tables or passages of the source.

Turning to `O=c1[nH]cnc2nc[nH]c12` [Hypoxanthine, hypoxanthine], in data set [1] (in vivo), the “change of adenosine metabolite levels” value is “increased during the infusion”. The Arterial concentration in [2] (in vivo) was found to be 4.2 ± 0.9 µM.
In the case of `COc1cc2nc(N3CCN(C(=O)c4ccco4)CC3)nc(N)c2cc1OC` [prazosin], in [3] (in vivo), the “heart rate” value was “increase heart rate”; the “onset and predictability of action” value was “slow onset and unpredictable action”.
For `OC[C@H]1O[C@@H](n2cnc3c(O)ncnc32)[C@H](O)[C@@H]1O` [Inosine, inosine], the “change of adenosine metabolite levels” value in [1] (setting [10]) is “remained slightly above basal levels 20-40 minutes after the infusion”; in data set [1] (during / after adenosine infusion, in words, listed as inosine), “increased during the infusion”. The concentration in data set [1] (read-out: Purine level in arterial plasma, after hypotension, 3-9 min, 3-9 min after hypotension) amounted to 690 ± 260 nM; in data set [1] (setting [11]), 290 ± 150 nM; in data set [1] (setting [12]), 3010 ± 1480 nM; in data set [2] (20' post CPB, n = 6), 400 ± 100 nM; in data set [2] (setting [14]) it was 2400 ± 1200 nM. Besides, the Arterial concentration came to 0.4 ± 0.1 µM in [2] (20' post CPB, n = 6); 1.3 ± 0.7 µM in data set [2] (setting [13]); 2.5 ± 1.0 µM in [2] (setting [14]); 1.2 ± 0.3 µM in data set [2] (setting [15]); 1.4 ± 0.4 µM in [2] (setting [16]). Besides, in data set [2] (setting [17]), the concentration at 10 min amounted to 900 ± 300 nM. Further, the concentration at 40 min in [2] (setting [17]) was 1600 ± 500 nM. Further, the concentration at 80 min in data set [2] (setting [17]) is 1600 ± 400 nM. For the same molecule, the “metabolite elevation during infusion” value in data set [2] (in vivo) is recorded as “consistently elevated”.
As for `FC(F)OC(Cl)C(F)(F)F` (stereo not drawn) [isoflurane], the “cardiac blood flow” value in data set [3] (in vivo) is given as “tendency to reduce cardiac blood flow”. In data set [4], the “coronary flow / coronary blood flow” value was “no beneficial effect; also recorded: may reduce coronary blood flow”.
`CCCCC[C@H](O)/C=C/[C@@H]1[C@H]2C/C(=C/CCCC(=O)O)O[C@H]2C[C@H]1O` [prostacyclin]: in data set [3] (coronary bypass surgery), the “systemic vasodilation and hypotension” value is “severe systemic vasodilation and hypotension”.
`OCCN(CCO)c1nc(N2CCCCC2)c2nc(N(CCO)CCO)nc(N3CCCCC3)c2n1` [dipyridamole]: the “decrease of MABP by dipyridamole infusion” value in data set [5] is “approximately 10 mmHg”. In addition, the results for the “adenosine uptake inhibition” value in data set [6] and in [6] (listed as Dipryridamol) were “inhibiting cellular uptake of adenosine” and “adenosine uptake inhibitor”, respectively. In addition, the concentration in [7] is 1200 ± 300 nM. Also, the “reduction of mean arterial blood pressure by dipyridamole” value in data set [8] was 20%. Moreover, the “redistribution of flow within heart muscle” value in data set [9] was “augment the redistribution of flow within the heart muscle”.
For `NNc1nncc2ccccc12` [hydralazine], the “heart rate” value in [3] (in vivo) is reported as “increase heart rate”.
With `O=c1[nH]c(=O)c2[nH]cnc2[nH]1` [Xanthine, xanthine], the “change of adenosine metabolite levels” value in data set [1] (in vivo) is listed as “unaffected”.
Turning to `O=c1[nH]c(=O)c2[nH]c(=O)[nH]c2[nH]1` [Uric Acid, uric acid], in [1] (setting [10]), the “change of adenosine metabolite levels” value is reported as “unaffected”. Also, the figures for the concentration in data set [1] (setting [11]) and in [1] (setting [12]) were 200000 ± 28800 nM and 198000 ± 22700 nM, respectively. Also, the Arterial concentration in data set [2] (20' post CPB, n = 6) was 260 ± 34 µM; in data set [2] (setting [13]), 260 ± 32 µM; in data set [2] (setting [14]) it was 269 ± 35 µM; in data set [2] (setting [15]) it was 250 ± 32 µM; in data set [2] (setting [16]) it was 249 ± 30 µM.
